Values of other authors in patent publication US20200353057A1, “REDUCING IMMUNOGENICITY TO PEGLOTICASE” (Horizon Pharma Rheumatology LLC, priority 2019, published 2020).
Like-named read-outs stand apart in the source and are kept apart here.

Experiments:
[1] = for Detectable in urine: after 8 hours; for Bound to serum proteins: in vivo
[2] = test system: renal transplant and RA patients
[3] = test system: patients treated with allopurinol; conditions: human, in vivo
[4] = test system: organ transplant recipients; conditions: in vivo
[5] = test system: patients with refractory chronic gout; conditions: Phase 2 program
[6] = test system: subjects with refractory gout; conditions: doses of 4 to 12 mg, within 24 to 72 hours, from 11.1±0.6 mg/dL
[7] = diluted in infusion bags
[8] = test system: patients with refractory chronic gout
[9] = test system: patients with lupus nephritis; conditions: in vivo

COc1c(C)c2c(c(O)c1C/C=C(\C)CCC(=O)OCCN1CCOCC1)C(=O)OC2 [Mycophenolate mofetil, 2-morpholinoethyl (E)-6-(1,3-dihydro4-hydroxy-6-methoxy-7-methyl-3-oxo-5-isobenzofuranyl)-4-methyl-4-hexenoate]
Detectable in urine [1]: no mycophenolate mofetil or mercaptopurine is detectable in urine
Bound to serum proteins [1]: 30%
Absorption following oral administration ([1]; oral): well absorbed
Increased susceptibility to infection ([2]; RA): < 1%
Leukopenia ([2]; RA): 28%
Nausea and vomiting ([2]; RA): 12%
Increased susceptibility to infection ([2]; renal transplant): 20%
Leukopenia ([2]; renal transplant): > 50%
Neoplasia (lymphoma) ([2]; renal transplant): 0.5%
Neoplasia (other than lymphoma) ([2]; renal transplant): 3%
Teratogenic effects (rats): teratogenic effects
Teratogenic effects (rabbits): teratogenic effects

Oc1ncnc2[nH]ncc12 [allopurinol]
Patients who develop allergic reactions [3]: Approximately 2%
Patients with severe hypersensitivity syndrome [3]: about 0.4%

Sc1ncnc2nc[nH]c12 [mercaptopurine, 6-mercaptopurine]
Detectable in urine [1]: no mycophenolate mofetil or mercaptopurine is detectable in urine
Bound to serum proteins [1]: 30%

pegloticase
Organ transplant recipients with a sustained high titer Ab response to pegloticase [4]: one out of seven
Dose-response plateau dose [5]: 12 mg
Minimally effective dose [5]: 4 mg
Safe and optimally effective dose [5]: 8 mg
pUAc (plasma urate concentration) after dosing, mean±SD [6]: 1.0±0.5 mg/dL
Stability of diluted solution ([7]; 2° C. to 8° C.): 4 h
Stability of diluted solution ([7]; room temperature (20° C. to 25° C.)): 4 h
Patients maintaining a response, antibody titer exceeding 1:2430 at any time ([8]; 7 of 65 patients, another study): 10.8%
Patients with IRs in whom loss of response (return to SUA ≥6 mg/dL) preceded the first IR ([8]; 20/21): 95%
Patients with titers exceeding 1:2430 who developed IRs ([8]; 31 of 52): 60%
Patients maintaining a response, never had an antibody titer above 1:2430 ([8]; 58/65, another study): 89.2%
Patients who developed high titer anti-pegloticase antibodies and subsequently lost response ([8]; 69 of 169 patients, one study): 41%
Occurrence of most common adverse reactions (gout flares, infusion reactions, nausea, contusion or ecchymosis, nasopharyngitis, constipation, chest pain, anaphylaxis, vomiting) ([8]; KXX-treated patients): ≥ 5%
Occurrence of ecchymoses, sore throat, constipation, chest pain, and vomiting ([8]; patients treated with pegloticase): at least 5%
Incidence of infusion-related reactions ([8]; pooled Phase 3, 8 mg biweekly dosing): 26%
Incidence of infusion-related reactions ([8]; pooled Phase 3, 8 mg every-4-week dosing regimen): 40%
Anaphylaxis frequency ([8]; pre-marketing controlled clinical trials): 6.5%
Infusion reactions reported ([8]; pre-marketing controlled clinical trials, 8 mg every 2 weeks): 26%
Participants with high antibody titers who maintained a response (serum urate <6 mg/dL) ([8]; second study): 1 of 52
Participants with high titers who developed IR ([8]; second study): 60%

rituximab: biologic arm of a lupus nephritis RCT on top of MMF and glucocorticoids
Rate of serious infections [9]: 16.6 /100 patient-years
